Assay results published in the NIST ThermoML archive (doi:10.1016/j.jct.2007.11.001).
± gives the expanded uncertainty stated by the source.

Assay: Molar enthalpy of transition or fusion
Conditions: Crystal 2; Adiabatic calorimetry

Molar enthalpy of transition or fusion: 0.271 ± 0.025 kJ/mol
Structure (SMILES): O=P([O-])([O-])[O-].[Cs+].[Mg+2] [caesium-magnesium monophosphate]
